From the supplement of paper PMC13380429 come the findings set out here.

Conditions in all cases: 72 h
The subject of assay [1] is U2OS. Briefly: cell viability relative to DMSO; higher = less toxic.
The test system of assay [2] is Vero E6. The assay is described as above.
Assay [3] concerns Caco-2. Described as above.
Assay [4] has as its system Calu-3. The assay is described as above.
In assay [5] the test system is HepG2. The assay is described as above.
Assay [6] has as its system U2OS. Kind of assay: relative viability EC50 (midpoint between 100% and the lowest measured viability); higher = less toxic.
Assay [7] relates to Caco-2. Described as above.
For assay [8], the system named is Calu-3. The description is as above.
Assay [9] concerns HepG2. The description is as above.
The test system of assay [10] is U2OS. Kind of assay: drug sensitivity score (DSS) for viability; higher = more toxic; extreme values may be limits of the assay.
Assay [11] has as its system Vero E6. The assay is described as above.
Assay [12] relates to Caco-2. Described as above.
For assay [13], the system named is Calu-3. The assay is described as above.
For assay [14], the system named is HepG2. The assay is described as above.

By cell viability is commonly meant a read-out of living cells in per cent, often relative to untreated cells. As for `CCOC(=O)CSCCC1NC(C(=O)O)CS1` (stereo not given) [letosteine], the cell viability with U2OS [1] (1 nM) stood at 101%; in the assay with U2OS [1] (10 nM), 102%; in the assay with U2OS [1] (100 nM), 107%; in the assay with U2OS [1] (1000 nM), 99.6%; with U2OS [1] (10000 nM), 103%; in the assay with Vero E6 [2] (1 nM), 75.4%. Also, the cell viability in the assay with Vero E6 [2] (10 nM) is 102%; with Vero E6 [2] (100 nM) it was 74.4%; in the assay with Vero E6 [2] (1000 nM), 98.3%; in the assay on Vero E6 [2] (10000 nM), 93.3%; with Caco-2 [3] (1 nM) it was 90.8%; in the assay on Caco-2 [3] (10 nM) it was 80.7%. Further, the cell viability in the assay on Caco-2 [3] (100 nM) was determined as 97.4%; in the assay with Caco-2 [3] (1000 nM) it was 97.9%; with Caco-2 [3] (10000 nM), 75.5%; in the assay on Calu-3 [4] (1 nM) it was 97.6%; with Calu-3 [4] (10 nM) it was 97.1%; with Calu-3 [4] (100 nM), 116%. Further, the cell viability turned out to be 96.9% with Calu-3 [4] (1000 nM); 101% with Calu-3 [4] (10000 nM); 80.5% with HepG2 [5] (1 nM); 96.4% in the assay on HepG2 [5] (10 nM); 98.7% in the assay with HepG2 [5] (100 nM); 95.6% in the assay with HepG2 [5] (1000 nM). In addition, in the assay on HepG2 [5] (10000 nM), the cell viability stood at 92.9%. For the same molecule, the “relative viability EC50” value with U2OS [6], in the assay on Caco-2 [7], in the assay with Calu-3 [8] and in the assay with HepG2 [9] was > 10 µM each time. Also, the drug sensitivity score in the assay with U2OS [10] is 0; in the assay on Vero E6 [11], 1.1; in the assay with Caco-2 [12], 0; in the assay with Calu-3 [13], 0; in the assay on HepG2 [14], 0.

For the molecule `N[C@H](Cc1cc(I)c(Oc2ccc(O)c(I)c2)c(I)c1)C(=O)O` [liothyronine-(isomer)], the cell viability in the assay with U2OS [1] (1 nM) came out at 101%; in the assay with U2OS [1] (10 nM) it was 99.9%; in the assay on U2OS [1] (100 nM), 96.8%; in the assay with U2OS [1] (1000 nM), 102%; with U2OS [1] (10000 nM), 96%; with Vero E6 [2] (1 nM), 98.8%. Moreover, the cell viability came to 92.9% in the assay on Vero E6 [2] (10 nM); 93.1% in the assay on Vero E6 [2] (100 nM); 90.7% in the assay with Vero E6 [2] (1000 nM); 91.1% in the assay with Vero E6 [2] (10000 nM); 99.7% in the assay with Caco-2 [3] (1 nM); 92.9% in the assay with Caco-2 [3] (10 nM). The cell viability worked out at 100% with Caco-2 [3] (100 nM); 104% in the assay with Caco-2 [3] (1000 nM); 92.7% in the assay with Caco-2 [3] (10000 nM); 109% in the assay with HepG2 [5] (1 nM); 99.7% with HepG2 [5] (10 nM); 107% with HepG2 [5] (100 nM). The cell viability in the assay on HepG2 [5] (1000 nM) turned out to be 102%; in the assay with HepG2 [5] (10000 nM) it was 105%. Further, the drug sensitivity score with U2OS [10], in the assay with Vero E6 [11], in the assay on Caco-2 [12] and in the assay on HepG2 [14] was 0 in each case.

Turning to `CC1CS(=O)(=O)CCN1/N=C/c1ccc([N+](=O)[O-])o1` (stereo not given) [nifurtimox], the drug sensitivity score with U2OS [10], with Vero E6 [11], in the assay on Calu-3 [13] and in the assay with HepG2 [14] was 0 throughout.

Take `O=C(O)c1cc(=O)[nH]c(=O)[nH]1` [orotic-acid]: the cell viability in the assay on U2OS [1] (1 nM) was determined as 102%; with U2OS [1] (10 nM) it was 101%; in the assay with U2OS [1] (100 nM), 104%; in the assay with U2OS [1] (1000 nM) it was 97.7%; in the assay on U2OS [1] (10000 nM), 99.4%; with Caco-2 [3] (1 nM), 105%. Moreover, the cell viability in the assay on Caco-2 [3] (10 nM) amounted to 94.8%; in the assay on Caco-2 [3] (100 nM), 92.6%; in the assay on Caco-2 [3] (1000 nM) it was 80%; in the assay on Caco-2 [3] (10000 nM) it was 102%; in the assay on Calu-3 [4] (1 nM) it was 103%; in the assay with Calu-3 [4] (10 nM) it was 98.7%. Further, the cell viability in the assay with Calu-3 [4] (100 nM) was determined as 97.6%; in the assay on Calu-3 [4] (1000 nM) it was 99.6%; in the assay on Calu-3 [4] (10000 nM), 100%; with HepG2 [5] (1 nM) it was 106%; in the assay with HepG2 [5] (10 nM), 117%; in the assay with HepG2 [5] (100 nM), 98.6%. The cell viability in the assay on HepG2 [5] (1000 nM) came out at 106%; in the assay with HepG2 [5] (10000 nM) it was 100%. In addition, the “relative viability EC50” value with U2OS [6], with Caco-2 [7], with Calu-3 [8] and in the assay with HepG2 [9] was > 10 µM each time. The drug sensitivity score with U2OS [10], with Caco-2 [12], in the assay with Calu-3 [13] and with HepG2 [14] was 0 in each case.
